Paper PMC8566969, “Comparison of viral RNA–host protein interactomes across pathogenic RNA viruses informs rapid antiviral drug discovery for SARS-CoV-2” (Cell Research, 2021)
Entries after “also recorded” stand apart in the source; their conditions may differ.

Experiments:
[1] = system: SARS-CoV-2 RNA interacting human proteins; parameters: ACT_VALUE, ACT_TYPE ID50: unit not given here; conditions: cited from earlier work
[2] = system: SARS-CoV-2 (IPBCAMS-YL01/2020); test: Antiviral assay, bona fide SARS-CoV-2 in Huh7.5.1 cells; type: cell-based; conditions: IPBCAMS-YL01/2020, human liver Huh7.5.1 cells
TUBB = TUBB (Homo sapiens, UniProt P07437); test: Cellular thermal shift assay (CETSA) in A549 cells, TUBB; type: cell-based
[3] = system: TUBB cytoskeletal networks; test: Immunofluorescence of the TUBB-containing cytoskeleton in Caco-2 cells; type: cell-based, human; conditions: 0.5 µM, 6 h
[4] = system: EBOVΔVP30-GFP virus (strain Zaire Mayinga)
[5] = system: SARS-CoV-2 (IPBCAMS-YL01/2020); test: in vitro; conditions: human
[6] = system: SARS-CoV-2 (IPBCAMS-YL01/2020); test: microbe, parasite or virus in culture; conditions: Severe acute respiratory syndrome coronavirus 2, A549-ACE2, 48 h, read-out: IC50 (half maximal inhibitory concentration), SARS-CoV-2 IPBCAMS-YL01/2020
[7] = system: EBOVΔVP30-GFP virus (strain Zaire Mayinga); test: microbe, parasite or virus in culture; conditions: Zaire ebolavirus, 72 h, read-out: IC50, EBOVΔVP30-GFP
[8] = Cell viability assay (CellTiter-Glo), Huh7 cells; conditions: human
ZIKV (MR766) = test: Antiviral assay, ZIKV in Huh7 cells (4G2 immunostaining, high-content imaging); conditions: for SI (CC50/IC50), ZIKV: Huh7 cells; for IC50: Zika virus, Huh-7, 72 h, read-out: IC50, ZIKV
[9] = system: heat shock protein 90 alpha family class B member 1 (HSP90AB1); parameters: method as in earlier work; conditions: ref IUPHAR/BPS Guide to PHARMACOLOGY (geldanamycin pubmed_id 24984936), cited from earlier work; for IC50: read-out: original_affinity_median_nm (IC50)
in vitro [10] = conditions: human
HSP90AB1 [11] = biological target: T1, HSP90AB1 (Homo sapiens, UniProt P08238); test: biochemical; type: binding
T1 construct: HSP90AB1 protein was detected using a specific antibody after the A549 cells were treated with Cepharanthine; endogenous in cells; host or cells: A549

HSP90AB1 [12] = biological target: T1, HSP90AB1; type: cell-based
[13] = system: SARS-CoV-2 (IPBCAMS-YL01/2020); parameters: species or system hACE2 transgenic mice; conditions: mouse, in vivo
SARS-CoV-2 = system: SARS-CoV-2; parameters: method as in PMID 32707573; conditions: at 2.5 μM; cited from earlier work
SARS-CoV-2 virus entry = conditions: read-out: IC50, antiviral activity in virus entry inhibitor screen; cited from earlier work
[14] = Solubility in water (statement in formulation method)
(GGCT) = biological target: (GGCT); parameters: method as in IUPHAR/BPS Guide to PHARMACOLOGY, pubmed_id 17260973; conditions: assay_description: pKa= 9.71, ref IUPHAR/BPS Guide to PHARMACOLOGY, pubmed_id 17260973, cited from earlier work
[15] = biological target: aldehyde dehydrogenase 2 family member (ALDH2); parameters: method as in IUPHAR/BPS Guide to PHARMACOLOGY, pubmed_id 18613661; conditions: In vitro inhibition of recombinant human mitochondrial aldehyde dehydrogenase, ref IUPHAR/BPS Guide to PHARMACOLOGY, pubmed_id 18613661, cited from earlier work
[16] = system: isocitrate dehydrogenase (NADP(+)) 2 (IDH2); parameters: method as in IUPHAR/BPS Guide to PHARMACOLOGY, pubmed_id 32071674; conditions: ref IUPHAR/BPS Guide to PHARMACOLOGY, pubmed_id 32071674; cited from earlier work
in vitro [17] = conditions: human; remark: listed apart in the source
[18] = read-out: original_affinity_median_nm (Ki)

T1 sequence (P08238 whole entry): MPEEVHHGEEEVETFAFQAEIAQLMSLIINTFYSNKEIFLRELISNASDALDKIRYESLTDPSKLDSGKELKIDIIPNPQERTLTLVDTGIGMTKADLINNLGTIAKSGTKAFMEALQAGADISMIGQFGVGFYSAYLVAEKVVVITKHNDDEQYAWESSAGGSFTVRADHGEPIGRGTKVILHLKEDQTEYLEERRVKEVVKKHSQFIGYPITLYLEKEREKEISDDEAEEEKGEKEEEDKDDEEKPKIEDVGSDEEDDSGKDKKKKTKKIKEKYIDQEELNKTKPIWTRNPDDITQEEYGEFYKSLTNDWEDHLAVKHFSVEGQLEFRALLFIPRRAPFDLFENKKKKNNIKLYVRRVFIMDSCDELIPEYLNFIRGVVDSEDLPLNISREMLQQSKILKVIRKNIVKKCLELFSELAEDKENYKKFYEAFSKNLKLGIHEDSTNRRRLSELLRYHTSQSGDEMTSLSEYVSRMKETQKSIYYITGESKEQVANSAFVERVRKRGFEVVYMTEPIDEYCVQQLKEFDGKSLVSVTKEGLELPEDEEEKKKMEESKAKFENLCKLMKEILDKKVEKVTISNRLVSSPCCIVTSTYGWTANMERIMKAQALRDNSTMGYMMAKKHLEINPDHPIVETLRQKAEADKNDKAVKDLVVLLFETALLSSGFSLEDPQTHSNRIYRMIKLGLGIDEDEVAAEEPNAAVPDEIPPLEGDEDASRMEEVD
Chain of TUBB (P07437 whole entry): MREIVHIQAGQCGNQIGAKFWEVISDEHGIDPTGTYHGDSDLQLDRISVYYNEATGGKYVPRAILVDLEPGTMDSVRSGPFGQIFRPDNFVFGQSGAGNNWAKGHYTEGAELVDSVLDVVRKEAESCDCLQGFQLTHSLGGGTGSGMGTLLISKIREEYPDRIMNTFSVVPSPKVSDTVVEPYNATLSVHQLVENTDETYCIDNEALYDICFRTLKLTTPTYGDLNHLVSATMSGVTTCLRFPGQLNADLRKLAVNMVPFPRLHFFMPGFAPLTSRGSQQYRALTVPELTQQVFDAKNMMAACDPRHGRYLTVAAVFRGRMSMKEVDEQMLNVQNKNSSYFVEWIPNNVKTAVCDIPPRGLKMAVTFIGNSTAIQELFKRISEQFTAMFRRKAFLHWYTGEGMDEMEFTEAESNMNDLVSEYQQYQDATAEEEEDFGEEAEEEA
Chain of TUBB (P68363 whole entry, further chain): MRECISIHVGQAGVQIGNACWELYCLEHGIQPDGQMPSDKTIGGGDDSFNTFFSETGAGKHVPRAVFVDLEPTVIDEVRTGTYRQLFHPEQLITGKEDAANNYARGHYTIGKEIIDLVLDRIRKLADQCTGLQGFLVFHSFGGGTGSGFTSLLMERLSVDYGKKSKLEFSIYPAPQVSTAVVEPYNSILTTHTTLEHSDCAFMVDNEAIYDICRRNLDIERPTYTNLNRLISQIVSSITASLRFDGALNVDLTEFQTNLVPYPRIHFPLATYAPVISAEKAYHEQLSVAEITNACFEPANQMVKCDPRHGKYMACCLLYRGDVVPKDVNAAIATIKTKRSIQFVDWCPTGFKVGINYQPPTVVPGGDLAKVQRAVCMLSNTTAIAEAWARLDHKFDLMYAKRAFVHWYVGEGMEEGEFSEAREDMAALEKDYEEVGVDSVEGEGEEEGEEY

Q: Which “ACT_VALUE, ACT_TYPE IC50” value [1] does the source give for CC[C@]1(O)C[C@@H]2CN(CCc3c([nH]c4ccccc34)[C@@](C(=O)OC)(c3cc4c(cc3OC)N(C)[C@H]3[C@@](O)(C(=O)OC)[C@H](OC(C)=O)[C@]5(CC)C=CCN6CC[C@]43[C@@H]65)C2)C1 [vinblastine] here?
A: The value was 9.

Q: With CN1CCN(CCCN2c3ccccc3Sc3ccc(C(F)(F)F)cc32)CC1 [Trifluoperazine] as the compound, how does the “Antiviral effect against SARS-CoV-2 in Huh7.5.1 cells (in words)” value [2] read?
A: Its value is “confirmed”.

Q: And the “CETSA, thermal stability of TUBB” value (TUBB)?
A: Its value is “slightly affected the thermal stability of TUBB”.

Q: What about the “Architecture of the TUBB cytoskeletal networks (immunofluorescence)” value [3] of the same compound?
A: The value was “architecture of the TUBB cytoskeletal networks was disrupted”.

Q: What about the “SI (CC50/IC50), EBOVΔVP30-GFP” value [4] of the same compound?
A: Its value is 2.18.

Q: What about the selectivity ratio [5] of the same compound?
A: The selectivity ratio was 10.7.

Q: And the IC50 [6]?
A: Its IC50 is 3460 nM.

Q: And the IC50 [7]?
A: The IC50 was 1790 nM.

Q: What about the CC50 at 72 h [8] of the same compound?
A: The CC50 at 72 h was 7790 nM.

Q: And the “SI (CC50/IC50), ZIKV” value (ZIKV (MR766))?
A: Its value is 8.11.

Q: What about the IC50 (ZIKV (MR766)) of the same compound?
A: The IC50 was 960 nM.

Q: What does the source list for COC(=O)[C@H]1[C@@H](O)[C@@]2(O)c3c(OC)cc(O[C@@H]4O[C@@H]([C@H](O)CO)CO[C@H]4OC)cc3O[C@@]2(c2ccc(OC)cc2)[C@@H]1c1ccccc1 [Silvestrol]?
A: SI (CC50/IC50), EBOVΔVP30-GFP [4]: 0.50; IC50 [7]: 20 nM; IC50 (ZIKV (MR766)): 10 nM

Q: Which results are given for CCNC(=O)c1noc(-c2cc(C(C)C)c(O)cc2O)c1-c1ccc(CN2CCOCC2)cc1 [luminespib]?
A: affinity_median (pIC50) [9]: 8.7; IC50 [9]: 2 nM

Q: Which results are given for CC(C)(O)CNc1nc(Nc2ccnc(C(F)(F)F)c2)nc(-c2cccc(C(F)(F)F)n2)n1 [Enasidenib, 2-Methyl-1-(4-(6-(trifluoromethyl)pyridin-2-yl)-6-(2-(trifluoromethyl)pyridin-4-ylamino)-1,3,5-triazin-2-ylamino)propan-2-ol]?
A: selectivity ratio [5]: 1.17; CC50 (in vitro [10]): 24900 nM; IC50 [6]: 28000 nM; IC50 (ZIKV (MR766)): 13500 nM

Q: With COc1ccc2cc1Oc1ccc(cc1)C[C@H]1c3c(cc4c(c3Oc3cc5c(cc3OC)CCN(C)[C@@H]5C2)OCO4)CCN1C [Cepharanthine] as the compound, how does the “Antiviral effect against SARS-CoV-2 in Huh7.5.1 cells (in words)” value [2] read?
A: Its value is “confirmed”.

Q: What about the Kd (HSP90AB1 [11]) of the same compound?
A: The Kd was 3500 nM.

Q: What about the “CETSA target engagement, HSP90AB1” value (HSP90AB1 [12]) of the same compound?
A: The value was “targeted HSP90AB1; also recorded: bound to HSP90AB1 in cells”.

Q: And the “Viral loads in the lungs vs vehicle group at 3 dpi (qPCR)” value [13]?
A: Its value is “no obvious differences”.

Q: And the “Viral loads in the lungs vs vehicle group at 5 dpi (qPCR)” value [13]?
A: The value was “significant reduction”.

Q: What about the “Expression level of IL6 in lung vs vehicle group” value ([13]; 10 mg/kg) of the same compound?
A: The value was “reduced”.

Q: And the “Expression level of TNF in lung vs vehicle group” value ([13]; 10 mg/kg)?
A: Its value is “reduced”.

Q: And the “Lung injury and inflammation (H&E staining)” value ([13]; 10 mg/kg)?
A: Its value is “the extent of damage was much relieved in lung tissue”.

Q: And the “SI (CC50/IC50), EBOVΔVP30-GFP” value [4]?
A: The value was 12.10.

Q: And the inhibition ratio (SARS-CoV-2)?
A: Its inhibition ratio is over 40%.

Q: And the IC50 (SARS-CoV-2 virus entry)?
A: The IC50 was 1400 nM.

Q: And the selectivity ratio [5]?
A: The selectivity ratio was 18.5.

Q: What about the IC50 [6] of the same compound?
A: Its IC50 is 1670 nM.

Q: What about the IC50 [7] of the same compound?
A: The IC50 was 420 nM.

Q: And the CC50 at 72 h [8]?
A: Its CC50 at 72 h is 24000 nM.

Q: What about the Solubility in water [14] of the same compound?
A: The Solubility in water was “insoluble in water”.

Q: What about the “SI (CC50/IC50), ZIKV” value (ZIKV (MR766)) of the same compound?
A: The value was 10.97.

Q: What about the IC50 (ZIKV (MR766)) of the same compound?
A: Its IC50 is 2190 nM.

Q: With COC1=C2C[C@@H](C)C[C@H](OC)[C@H](O)[C@@H](C)/C=C(\C)[C@H](OC(N)=O)[C@@H](OC)/C=C\C=C(/C)C(=O)NC(=CC1=O)C2=O [geldanamycin] as the compound, how does the “affinity_median (pIC50)” value [9] read?
A: Its value is 6.55.

Q: What about the IC50 [9] of the same compound?
A: Its IC50 is 282 nM.

Q: Which results are given for COP(=O)(CCC(N)C(=O)O)Oc1cccc(CC(=O)O)c1 (stereo not drawn) [GGsTop]?
A: affinity_median (pKi) ((GGCT)): 3.77; Ki ((GGCT); [18]): 170000 nM

Q: Which “ACT_VALUE, ACT_TYPE ID50” value [1] does the source give for CC(=O)O[C@@]12CO[C@@H]1C[C@H](O)[C@@]1(C)C(=O)[C@H](O)C3=C(C)[C@@H](OC(=O)[C@H](O)[C@@H](NC(=O)OC(C)(C)C)c4ccccc4)C[C@@](O)([C@@H](OC(=O)c4ccccc4)[C@H]21)C3(C)C [docetaxel] here?
A: Its value is 6.699.

Q: Which results are given for COc1cc(O)c2c(=O)c(-c3ccc(O)cc3)coc2c1 [prunetin]?
A: affinity_median (pKi) [15]: 6.35; Ki [15, 18]: 450 nM

Q: Which “ACT_VALUE, ACT_TYPE EC50” value [1] does the source give for CC(=O)O[C@H]1C(=O)[C@@]2(C)[C@H]([C@H](OC(=O)c3ccccc3)[C@]3(O)C[C@H](OC(=O)[C@H](O)[C@@H](NC(=O)c4ccccc4)c4ccccc4)C(C)=C1C3(C)C)[C@]1(OC(C)=O)CO[C@@H]1C[C@@H]2O [paclitaxel] here?
A: The value was 8.05.

Q: With C[C@@H](Nc1nc(N[C@H](C)C(F)(F)F)nc(-c2cccc(Cl)n2)n1)C(F)(F)F [vorasidenib] as the compound, how does the “assay_description (result in words)” value [16] read?
A: The value was “Inhibits mutant IDH2”.

Q: Which “ACT_VALUE, ACT_TYPE IC50” value [1] does the source give for COc1cc([C@@H]2c3cc4c(cc3[C@H](O)[C@H]3COC(=O)[C@H]23)OCO4)cc(OC)c1OC [podophyllotoxin] here?
A: The value was 6.

Q: Which CC50 (in vitro [17]) does the source give for COc1cc2c(cc1OC)[C@@H]1C(=O)c3ccc4c(c3O[C@@H]1CO2)C=CC(C)(C)O4 [Deguelin] here?
A: The CC50 was 34700 nM.

Q: For C=C1C[C@@H]2CC[C@@]34C[C@H]5O[C@H]6[C@@H](O3)[C@H]3O[C@H](CC[C@@H]3O[C@H]6[C@H]5O4)CC(=O)C[C@@H]3[C@@H](OC)[C@@H](C[C@H](O)CN)O[C@H]3C[C@H]3O[C@@H](CC[C@@H]1O2)C[C@@H](C)C3=C [eribulin], which “ACT_VALUE, ACT_TYPE IC50” value [1] is on record?
A: Its value is 8.23.

Q: For CNC(=O)c1cc(Oc2ccc(NC(=O)Nc3ccc(Cl)c(C(F)(F)F)c3)cc2)ccn1 [Sorafenib], which CC50 (in vitro [17]) is on record?
A: Its CC50 is 12900 nM.
